Like-named read-outs stand apart in the source and are kept apart here.
Experiments:
[1] = target: ROS1 (Homo sapiens (Human), UniProt P08922); test: Mobility shift assay, ROS1 kinase; assay type: biochemical; details: ATP 26.7 μM
Text: The operation is described as follows:
Conversion %_Sample: conversion rate of sample;

[2] = target: ROS1-G2032R (Homo sapiens (Human), UniProt P08922, G2032R); test: LanceUltra kinase activity assay, ROS1-G2032R; assay type: biochemical; details: 2.6 μM ATP
Protocol: 5 μl 40 mM EDTA was used to stop the reaction. Then 2 nM Europium-anti-phosphotyrosine (PT66) (PerkinElmer, Cat. AD0069) was added and incubated at room temperature for 60 mins. […] The IC50 values of the compounds were calculated using XLFIT5 (IDBS) software.

[3] = tested on: Ba/F3 LMNA-NTRK1-WT; test: Cell proliferation inhibition (CellTiter-Glo), Ba/F3 LMNA-NTRK1-WT; assay type: cell-based; details: Mus musculus, BaF3, 72 h
Text: (§1) 4. Inhibitory Effect of Compounds on the Proliferation of TRK Fusion and Mutant Stable Cell Lines (IC50)
(§2) Six cell lines including Ba/F3 LMNA-NTRK1-WT, Ba/F3 LMNA-NTRK1-G595R, Ba/F3 ETV6-NTRK2-WT, Ba/F3 ETV6-NTRK2-G639R, Ba/F3 ETV6-NTRK2-G639R and Ba/F3 ETV6-NTRK3-G623R were used in this experiment.
(§3) The operation is described briefly as follows:
(§4) The cells in logarithmic growth phase were harvested to ensure that the cell viability was above 90%. […] Then each well containing the cells of the 96-well plate was added the compound solutions, 3 wells for each compound solution, and continued to incubate for another 72 hrs. Then CellTiter-Glo® kit (Promega, Cat #G7572) was used to do the detection. First, the CTG reagent was melted and the cell plate was balanced to room temperature. The same volume of CTG solution was added into each well and vibrated on the shaker for 5 minutes to lyse the cells. The cell plate was kept at room temperature for 20 minutes to stabilize the luminescent signal. […] Cell survival rate (%)=(1umdrug−1ummedium)/(1umcell−lummedium)×100%

[4] = tested on: Ba/F3 LMNA-NTRK1-G595R; test: Cell proliferation inhibition (CellTiter-Glo), Ba/F3 LMNA-NTRK1-G595R; assay type: cell-based; details: Mus musculus, BaF3, 72 h
Text: as §1, §2, §3, §4

[5] = tested on: Ba/F3 ETV6-NTRK2-WT; test: Cell proliferation inhibition (CellTiter-Glo), Ba/F3 ETV6-NTRK2-WT; assay type: cell-based; details: Mus musculus, BaF3, 72 h, 72 hrs, read-out: IC50 proliferation Ba/F3 ETV6-NTRK2-WT
Protocol: as §1
Six cell lines including Ba/F3 LMNA-NTRK1-WT, Ba/F3 LMNA-NTRK1-G595R, Ba/F3 ETV6-NTRK2-WT, Ba/F3 ETV6-NTRK2-G639R, Ba/F3 ETV6-NTRK2-G639R and Ba/F3 ETV6-NTRK3-G623R were used in this experiment. For the six cell lines, the maximum test concentration of the compound was 1 μM, 1 μM, 10 μM, […], 1 μM and 10 μM, were 3.16-fold gradient diluted to obtain 9 samples.
as §3
The cells in logarithmic growth phase were harvested to ensure that the cell viability was above 90%. 3000 cell/well were seeded in 96-well plate (Corning, Cat #3603). The cells were incubated overnight with 5% CO2, 95% humidity at 37° C. Then each well containing the cells of the 96-well plate was added the compound solutions, 3 wells for each compound solution, and continued to incubate for another 72 hrs. Then CellTiter-Glo® kit (Promega, Cat #G7572) was used to do the detection. First, the CTG reagent was melted and the cell plate was balanced to room temperature. The same volume of CTG solution was added into each well and vibrated on the shaker for 5 minutes to lyse the cells. The cell plate was kept at room temperature for 20 minutes to stabilize the luminescent signal. The luminescent value was collected by SpectraMax microplate detector (MD, 2104-0010A). […] Cell survival rate (%)=(1umdrug−1ummedium)/(1umcell−lummedium)×100%

[6] = tested on: Ba/F3 ETV6-NTRK3-WT; test: Cell proliferation inhibition (CellTiter-Glo), Ba/F3 ETV6-NTRK3-WT; assay type: cell-based; details: Mus musculus, BaF3, 72 h, 72 hrs, read-out: IC50 proliferation Ba/F3 ETV6-NTRK3-WT
[7] = Pharmacokinetic analysis in rats; assay type: in vivo, Male SD rats; details: rat
Protocol: 6. Pharmacokinetic Analysis
Male SD rats were grouped, each group having 3 rats. […] Animals were fasted overnight from 10 hours before administration to 4 hours after administration. Blood samples were collected at 0.25, 0.5, 1, 2, 4, 8 and 24 hours after administration in the oral group and at 0.083, 0.25, 0.5, 1, 2, 4, 8 and 24 hours after injection in the intravenous group. After isoflurane anesthesia, 0.3 ml whole blood collected through the fundus vein plexus was put into the heparin anticoagulant tube. The sample was centrifuged at 4° C. at 4000 rpm for 5 min. The plasma was transferred into the centrifuge tube and stored at −80° C. until analysis. The extract from the plasma extracted by protein precipitation was analyzed by LC/MS/MS.

[8] = Blood-to-brain distribution in rats; assay type: in vivo; details: male, SD, rat, 10 mg/kg single oral gavage
Protocol: 7. Blood-to-Brain Distribution
Male SD rats were grouped, each group having 12 rats. Each group was given the compound of Examples (10 mg/kg) by single oral gavage. The animals were fasted overnight from 10 hours before administration to 4 hours after administration. The rats were killed at 0.5, 1, 4 and 12 hours after administration, and blood and brain tissues were collected. The samples were centrifuged at 4000 rpm at 4° C. for 5 min and plasma was transferred into the centrifuge tube and stored at −80° C. until analysis. The extract from the plasma extracted by protein precipitation was analyzed by LC/MS/MS.

Sequence of ROS1-G2032R (P08922 28-2347 G2032R): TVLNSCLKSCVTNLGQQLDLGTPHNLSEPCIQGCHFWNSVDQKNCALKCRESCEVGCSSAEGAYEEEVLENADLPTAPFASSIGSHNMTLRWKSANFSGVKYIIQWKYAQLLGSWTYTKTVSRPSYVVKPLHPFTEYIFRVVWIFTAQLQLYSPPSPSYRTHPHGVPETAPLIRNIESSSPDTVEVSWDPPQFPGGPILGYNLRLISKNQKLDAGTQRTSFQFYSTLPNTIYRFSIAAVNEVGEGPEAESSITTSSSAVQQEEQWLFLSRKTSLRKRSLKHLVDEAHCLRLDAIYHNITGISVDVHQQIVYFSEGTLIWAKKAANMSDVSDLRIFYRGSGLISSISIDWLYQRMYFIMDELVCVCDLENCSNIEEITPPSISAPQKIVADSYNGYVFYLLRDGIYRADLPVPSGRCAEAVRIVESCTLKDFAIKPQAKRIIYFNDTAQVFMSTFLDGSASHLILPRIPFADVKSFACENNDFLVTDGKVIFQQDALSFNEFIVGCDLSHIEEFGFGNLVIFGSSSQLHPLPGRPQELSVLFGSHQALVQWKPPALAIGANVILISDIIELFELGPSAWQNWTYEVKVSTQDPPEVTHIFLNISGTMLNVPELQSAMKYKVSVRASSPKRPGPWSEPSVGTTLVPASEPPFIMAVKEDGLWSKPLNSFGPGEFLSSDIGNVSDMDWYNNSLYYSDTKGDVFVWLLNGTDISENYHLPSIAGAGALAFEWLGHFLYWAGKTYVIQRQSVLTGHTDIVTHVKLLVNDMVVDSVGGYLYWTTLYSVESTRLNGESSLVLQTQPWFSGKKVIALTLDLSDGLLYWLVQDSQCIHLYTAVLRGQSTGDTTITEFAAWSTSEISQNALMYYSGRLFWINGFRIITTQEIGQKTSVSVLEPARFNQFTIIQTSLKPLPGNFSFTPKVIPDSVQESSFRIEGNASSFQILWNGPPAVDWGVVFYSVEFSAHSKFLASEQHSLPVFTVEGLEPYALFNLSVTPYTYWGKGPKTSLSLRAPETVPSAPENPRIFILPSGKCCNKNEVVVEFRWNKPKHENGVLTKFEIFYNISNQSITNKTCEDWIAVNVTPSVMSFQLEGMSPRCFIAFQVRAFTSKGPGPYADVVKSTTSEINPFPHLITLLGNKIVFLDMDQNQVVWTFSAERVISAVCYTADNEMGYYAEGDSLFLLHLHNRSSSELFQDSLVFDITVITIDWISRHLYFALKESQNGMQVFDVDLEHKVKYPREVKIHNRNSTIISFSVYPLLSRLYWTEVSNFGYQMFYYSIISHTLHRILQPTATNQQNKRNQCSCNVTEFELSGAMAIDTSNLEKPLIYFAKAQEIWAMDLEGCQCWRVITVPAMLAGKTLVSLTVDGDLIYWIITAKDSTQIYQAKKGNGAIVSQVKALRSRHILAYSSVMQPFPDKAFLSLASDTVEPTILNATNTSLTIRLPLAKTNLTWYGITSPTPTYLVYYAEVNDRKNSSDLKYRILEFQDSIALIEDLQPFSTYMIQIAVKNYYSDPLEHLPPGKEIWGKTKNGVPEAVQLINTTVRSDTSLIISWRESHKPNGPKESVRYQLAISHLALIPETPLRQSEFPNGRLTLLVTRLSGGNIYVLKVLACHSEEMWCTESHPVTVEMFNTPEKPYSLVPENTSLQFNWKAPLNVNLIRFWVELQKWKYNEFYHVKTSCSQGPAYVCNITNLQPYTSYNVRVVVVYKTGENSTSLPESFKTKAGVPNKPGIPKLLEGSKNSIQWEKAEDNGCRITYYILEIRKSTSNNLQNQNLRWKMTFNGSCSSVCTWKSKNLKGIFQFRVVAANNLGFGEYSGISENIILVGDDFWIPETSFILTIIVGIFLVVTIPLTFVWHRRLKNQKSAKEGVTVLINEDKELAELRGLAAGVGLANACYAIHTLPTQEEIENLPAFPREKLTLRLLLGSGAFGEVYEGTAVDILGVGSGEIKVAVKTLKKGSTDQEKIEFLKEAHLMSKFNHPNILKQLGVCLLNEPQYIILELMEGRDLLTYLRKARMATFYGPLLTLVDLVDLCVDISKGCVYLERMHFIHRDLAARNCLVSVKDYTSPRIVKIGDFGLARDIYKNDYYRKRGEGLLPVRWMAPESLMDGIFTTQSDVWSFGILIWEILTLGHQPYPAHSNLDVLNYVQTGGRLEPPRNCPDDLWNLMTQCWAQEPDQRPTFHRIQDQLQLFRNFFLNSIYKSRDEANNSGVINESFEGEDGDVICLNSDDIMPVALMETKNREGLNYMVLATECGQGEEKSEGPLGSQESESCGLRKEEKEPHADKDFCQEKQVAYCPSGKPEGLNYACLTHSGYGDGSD
Sequence of ROS1 (P08922 28-2347): as the sequence (P08922 28-2347 G2032R) above, with R2005G counted along it

## C[C@H]1COC(=O)c2cnn3ccc(nc23)N[C@H](C)c2cc(F)ccc2O1 [Example 1, (1^3E,1^4E,3R,6S)-4^5-fluoro-3,6-dimethyl-5,8-dioxa-2-aza-1(5,3)-pyrazolo[1,5-a]pyrimidina-4(1,2)-benzenacyclononaphan-9-one]
[1]
  IC50: 0.33 nM
[2]
  IC50: 0.36 nM
[3]; test batch marked #
  IC50: 1.04 nM
[3]; test batch marked *
  IC50: 5.4 nM
[4]; test batch marked #
  IC50: 1.34 nM
[4]; test batch marked *
  IC50: 7.8 nM
[5]; test batch marked #
  IC50: 4.24 nM
[5]; test batch marked *
  IC50: 7.8 nM
[6]; test batch marked #
  IC50: 1.04 nM
[6]; test batch marked *
  IC50: 0.2 nM
[7]; male, SD, plasma, IV, 1 mg/kg
  AUC(0-inf): 621 ng·h/mL
  C0: 217 ng/mL
  half-life: 1.7 h
[7]; male, SD, plasma, IV, 1 mg/kg, read-out: C1 (clearance)
  clearance: 27.2 mL/min/kg
[7]; male, SD, plasma, IV, 1 mg/kg, read-out: Vdss
  Vd: 4.26 L/kg
[7]; male, SD, plasma, PO, 5 mg/kg
  AUC(0-inf): 3550 ng·h/mL
  Cmax: 952 ng/mL
  Tmax: 0.667 h
  half-life: 1.84 h
[7]; male, SD, plasma, po, 5 mg/kg, PO, 5 mg/kg, read-out: F (oral bioavailability)
  bioavailability: 100%
[7]; PO, 5 mg/kg
  F (oral bioavailability): 114%
[7]; oral
  PK performance compared with TPX-0005: better oral pharmacokinetic performance than that of TPX-0005
[8]; brain/plasma, AUC0-inf ratio
  Kp: 1.14
[8]; brain, read-out: AUC0-inf Brain
  AUC(0-inf): 20.8 µM·h
[8]; plasma, read-out: AUC0-inf Plasma
  AUC(0-inf): 18.2 µM·h

Reference: US12129258B2, “Diaryl macrocyclic compound and pharmaceutical composition, and use thereof” (PrimeGene (Beijing) Co., Ltd., priority 2018, dated 2024)
